For data set [1] the following is noted: for Content of nitrosamines: cocamidopropylamine oxide synthesis, additive 0,1% by weight on amido-amine; for inhibitory effect on the formation of nitrosamines: result in words, tertiary alkylamine oxide (cocamidopropylamine oxide) synthesis. On the procedure:
For the measurement, gas chromatography in combination with a thermal energy analyzer (GC-TEA) is used. In measurements using this technique, the so-called apparent total N-nitroso compounds (ATNC) are determined by a chemical denitrosation and detection of the released […] in µg/kg (ppb). This content is also determined by denitrosation of an N-nitrosodiisopropanolamine (NDiPLA) calibration standard.
(§1) To a three-neck flask of 1000 ml, demi-water and citric acid were added. The acid was added in order to keep the pH of the reaction mixture below 9. Subsequently, cocamidopropylamine and hydrogen peroxide were added. The reaction mixture was heated to a desired temperature of either 50 °C or 70 °C. Upon reaching the desired reaction temperature, sodium bicarbonate was added. The pH of the reaction mixture is maintained between 7,0 and 7,5. If necessary, NaOH is added.
(§2) In the examples described below, different additives were tested for their ability to inhibit the formation of nitrosamines. Each time, during the reaction, an amount of inhibitor was added which corresponds to 0,1% by weight of the amount of added amido-amine raw material.
The nitrosamine content was determined with the aid of a chemical denitrosation technique and measurement with a thermal energy analyzer. The detection limit of the method used was 50 µg total content of N-nitroso compounds/kg.

Data set [2] can be described thus: Synthesis tests of cocamidopropylamine oxide with candidate inhibitors: colour of the final product. It is filed as physicochemical. The following applies: additive 0,1% by weight on amido-amine. The method, then: as §1, §2

Molecules are shown by their SMILES. Where two headings read alike, the source gives them in different places.

As for `O=C(O)CN(CCN(CC(=O)O)CC(=O)O)CC(=O)O` [EDTA, ethylenediaminetetraacetic acid], the Content of nitrosamines in data set [1] (Temp 50 °C) was found to be 660 ppb; in data set [1] (Temp 70 °C), 1550 ppb. Moreover, in data set [1], the “inhibitory effect on the formation of nitrosamines” value is on record as “insufficiently able to inhibit the formation of nitrosamines”. The Colour in data set [2] (Temp 50 °C) came out at 27 Apha; in data set [2] (Temp 70 °C), 37 Apha.

The compound `O=C(O)CN(CCN(CC(=O)O)CC(=O)O)CCN(CC(=O)O)CC(=O)O` [DTPA Na, diethylene triamine pentaacetic acid] registered a Colour in data set [2] (Temp 50 °C) of 27 Apha.

`O=P(O)(O)CN(CCN(CP(=O)(O)O)CP(=O)(O)O)CCN(CP(=O)(O)O)CP(=O)(O)O` [DTPMP, diethylenetriamine penta(methylene phosphonic acid)]: the Content of nitrosamines in data set [1] (Temp 50 °C) is on record as 1637 ppb; in data set [1] (Temp 70 °C), 765 ppb. Moreover, the “inhibitory effect on the formation of nitrosamines” value in data set [1] is reported as “insufficiently able to inhibit the formation of nitrosamines”. Further, the Colour in data set [2] (Temp 50 °C) came to 50 Apha; in data set [2] (Temp 70 °C) it was 24 Apha.

For the origin of these results see patent EP3092214B1, “NITROSAMINE/NITRITE INHIBITION IN TERTIARY ALKYLAMINE OXIDE COMPOSITIONS” (EOC Surfactants N.V., priority 2014, dated 2015).
